Experimental data from the supplement of paper PMC10307832.

Tests used:
Assay in all cases: relative viability (nuclei count vs DMSO), 5 days (fraction); higher = more cells survive
Idelalisib = compound: CC[C@H](Nc1ncnc2[nH]cnc12)c1nc2cccc(F)c2c(=O)n1-c1ccccc1 [Idelalisib]
In short: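 For viability, nuclei in each treated well were divided by nuclei in vehicle wells and the median across plates was taken. Lung cancer cell lines in 1536-well plates were pinned with five library-drug doses (not always all listed) spaced by √10, cultured 5 days without medium change, and imaged at 4× after Hoechst staining, with plates passing only at control CV below 25% and at least one doubling.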

Idelalisib + OSI-027 = compound: CC[C@H](Nc1ncnc2[nH]cnc12)c1nc2cccc(F)c2c(=O)n1-c1ccccc1 [Idelalisib] + COc1cccc2cc(-c3nc([C@H]4CC[C@H](C(=O)O)CC4)n4ncnc(N)c34)[nH]c12 [OSI-027] (partner 0.5 µM)
In short: (§1)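 Cells from lung cancer lines were seeded into 1536-well plates and, one day later, dosed by pin tool. Treatments were either a single drug or a fixed dose of an anchor drug with five library-drug doses (not always all listed) in √10 steps. After 5 days, nuclei were stained in a one-step fixation (final 0.05% Triton X-100, 1% formaldehyde, 1 ug/ml Hoechst) and counted on 4× images, and relative viability is the treated-to-vehicle nuclei ratio, as the median of duplicate plates.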

Pemetrexed + Tozasertib = compound: Nc1nc2[nH]cc(CCc3ccc(C(=O)N[C@@H](CCC(=O)O)C(=O)O)cc3)c2c(=O)[nH]1 [Pemetrexed] + Cc1cc(Nc2cc(N3CCN(C)CC3)nc(Sc3ccc(NC(=O)C4CC4)cc3)n2)n[nH]1 [Tozasertib] (partner 0.1 µM)
In short: as §1

Pemetrexed + Alpelisib = compound: Nc1nc2[nH]cc(CCc3ccc(C(=O)N[C@@H](CCC(=O)O)C(=O)O)cc3)c2c(=O)[nH]1 [Pemetrexed] + Cc1nc(NC(=O)N2CCC[C@H]2C(N)=O)sc1-c1ccnc(C(C)(C)C(F)(F)F)c1 [Alpelisib] (partner 2 µM)
In short: as §1

| Cell Line | relative viability (Idelalisib; 0.04 µM) | relative viability (Idelalisib; 0.1265 µM) | relative viability (Idelalisib; 0.4 µM) | relative viability (Idelalisib; 1.265 µM) | relative viability (Idelalisib; 4 µM) | relative viability (Idelalisib + OSI-027; first compound 0.04 µM) | relative viability (Idelalisib + OSI-027; first compound 0.1265 µM) | relative viability (Idelalisib + OSI-027; first compound 0.4 µM) | relative viability (Idelalisib + OSI-027; first compound 1.265 µM) | relative viability (Idelalisib + OSI-027; first compound 4 µM) | relative viability (Pemetrexed + Tozasertib; first compound 0.002 µM) | relative viability (Pemetrexed + Tozasertib; first compound 0.006325 µM) | relative viability (Pemetrexed + Tozasertib; first compound 0.02 µM) | relative viability (Pemetrexed + Tozasertib; first compound 0.06325 µM) | relative viability (Pemetrexed + Tozasertib; first compound 0.2 µM) | relative viability (Pemetrexed + Alpelisib; first compound 0.002 µM) | relative viability (Pemetrexed + Alpelisib; first compound 0.006325 µM) | relative viability (Pemetrexed + Alpelisib; first compound 0.02 µM) | relative viability (Pemetrexed + Alpelisib; first compound 0.06325 µM) | relative viability (Pemetrexed + Alpelisib; first compound 0.2 µM) |
| --- | --- | --- | --- | --- | --- | --- | --- | --- | --- | --- | --- | --- | --- | --- | --- | --- | --- | --- | --- | --- |
| NCI-H3122 | 1.03 | 0.989 | 1 | 0.977 | 1.03 | 0.879 | 0.952 | 0.729 | 0.941 | 0.764 | 0.404 | 0.371 | 0.367 | 0.198 | 0.118 | 0.94 | 0.833 | 0.734 | 0.772 | 0.521 |
| NCI-H2170 | 1.01 | 1.02 | 0.88 | 0.885 | 0.807 | 0.722 | 0.793 | 0.637 | 0.609 | 0.649 | 0.714 | 0.644 | 0.636 | 0.829 | 0.602 | 0.723 | 0.831 | 0.905 | 0.869 | 0.824 |
| NCI-H1793 | 1.01 | 1.02 | 0.569 | 0.846 | 0.545 | 0.366 | 0.273 | 0.17 | 0.246 | 0.159 | 0.3 | 0.286 | 0.402 | 0.323 | 0.403 | 0.672 | 0.692 | 0.83 | 0.624 | 0.677 |
| BEN | 1.05 | 0.883 | 0.975 | 0.968 | 0.875 | 0.263 | 0.286 | 0.257 | 0.294 | 0.291 | 0.547 | 0.423 | 0.57 | 0.548 | 0.457 | 1.09 | 1.02 | 1.03 | 0.989 | 0.774 |
| NCI-H647 | 1.01 | 1.08 | 0.719 | 0.847 | 0.702 | 0.758 | 0.64 | – | 0.527 | 0.423 | 0.309 | 0.246 | 0.297 | 0.208 | 0.128 | – | 1.02 | 1.3 | 0.836 | 0.296 |
| PC-14 | 1.07 | 1.05 | 0.951 | 0.922 | 0.959 | 0.946 | 1.05 | 0.721 | 0.338 | 0.754 | 0.661 | 0.564 | 0.676 | 0.416 | 0.222 | 0.897 | 0.958 | 0.931 | 0.535 | 0.158 |
| HCC-78 | 1.05 | 0.923 | 0.811 | 1.01 | 0.729 | 0.413 | 0.364 | 0.324 | 0.36 | 0.293 | 0.312 | 0.32 | 0.378 | 0.308 | 0.259 | – | 0.316 | 0.324 | 0.228 | 0.174 |
